# Experimental data: patent US20240190880A1 (THE REGENTS OF THE UNIVERSITY OF MICHIGAN, priority 2021, published 2024)
# Molecular target: T1, ER (Homo sapiens, UniProt P03372)
# T1 construct: host or cells: T47D and MCF7 human breast cancer cells
# T1 sequence (P03372 1-595): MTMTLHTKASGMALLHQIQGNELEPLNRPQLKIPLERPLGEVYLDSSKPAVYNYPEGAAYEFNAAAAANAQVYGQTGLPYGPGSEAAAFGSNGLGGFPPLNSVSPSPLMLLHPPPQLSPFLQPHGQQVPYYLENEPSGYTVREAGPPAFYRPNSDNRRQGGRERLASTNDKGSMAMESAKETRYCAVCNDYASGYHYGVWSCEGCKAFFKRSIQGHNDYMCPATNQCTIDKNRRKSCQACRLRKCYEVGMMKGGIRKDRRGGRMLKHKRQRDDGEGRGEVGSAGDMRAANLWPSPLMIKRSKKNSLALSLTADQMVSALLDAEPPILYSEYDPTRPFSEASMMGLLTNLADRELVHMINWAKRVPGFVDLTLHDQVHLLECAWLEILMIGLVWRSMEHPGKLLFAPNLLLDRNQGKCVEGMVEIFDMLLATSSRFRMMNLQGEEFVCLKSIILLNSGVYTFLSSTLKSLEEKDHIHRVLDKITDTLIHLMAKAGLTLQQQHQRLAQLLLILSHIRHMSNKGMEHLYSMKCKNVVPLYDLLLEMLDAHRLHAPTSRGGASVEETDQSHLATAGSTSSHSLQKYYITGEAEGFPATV
# Assay: ER degradation activity, in-cell western blot analysis in T47D cells
# Assay type: cell-based
# Settings: 16 hours, Table A does not say which cell line (T47D or MCF7), read-out: Potency (DC50)
# Method in brief: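 ER protein remaining after 16 h compound exposure is quantified in T47D cells by in-cell western, with a no-primary-antibody background control. Values are percentages of DMSO-treated signal.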
row,DC50 [nM],SMILES
1,< 10,C[C@@H]1Cc2cc(O)ccc2[C@@H](c2c(F)cc(N3CCC4(CC3)CN(C(=O)CN3Cc5cc6c(cc5C3)C(=O)N(C3CCC(=O)NC3=O)C6)C4)cc2F)N1CC(F)F (stereo partly drawn) [E 35]
2,< 10,"C[C@@H]1Cc2c([nH]c3ccccc23)[C@@H](c2cnc(N3CCC4(CC3)CN(C(=O)CN3Cc5cc6c(cc5C3)C(=O)N(C3CCC(=O)NC3=O)C6=O)C4)nc2)N1CC(F)(F)F (stereo partly drawn) [E 255, 2-(2,6-dioxopiperidin-3-yl)-6-(2-(7-(5-((1R,3R)-3-methyl-2-(2,2,2-trifluoroethyl)-2,3,4,9-tetrahydro-1H-pyrido[3,4-b]indol-1-yl)pyrimidin-2-yl)-2,7-diazaspiro[3.5]nonan-2-yl)-2-oxoethyl)-6,7-dihydropyrrolo[3,4-f]isoindole-1,3(2H,5H)-dione]"
3,> 100,"O=C1CCC(N2C(=O)c3cc4c(cc3C2=O)CN(C2CCC(CNC3CN(c5ccc([C@@H]6c7ccc(O)cc7CC[C@@H]6c6ccccc6)cc5)C3)CC2)C4)C(=O)N1 (stereo partly drawn) [E 338, 2-(2,6-dioxopiperidin-3-yl)-6-(4-(((1-(4-((1R,2S)-6-hydroxy-2-phenyl-1,2,3,4-tetrahydronaphthalen-1-yl)phenyl)azetidin-3-yl)amino)methyl)cyclohexyl)-6,7-dihydropyrrolo[3,4-f]isoindole-1,3(2H,5H)-dione]"
4,> 100,"O=C1CCC(N2C(=O)c3cc4c(cc3C2=O)CN(CC2CN(CC3CCN(c5ccc([C@@H]6c7ccc(O)cc7CC[C@@H]6c6ccc(F)cc6)cc5)CC3)C2)C4)C(=O)N1 (stereo partly drawn) [E 274, 2-(2,6-dioxopiperidin-3-yl)-6-((1-((1-(4-((1R,2S)-2-(4-fluorophenyl)-6-hydroxy-1,2,3,4-tetrahydronaphthalen-1-yl)phenyl)piperidin-4-yl)methyl)azetidin-3-yl)methyl)-6,7-dihydropyrrolo[3,4-f]isoindole-1,3(2H,5H)-dione]"
5,10 to 100,"O=C1CCC(N2C(=O)c3cc4c(cc3C2=O)CN(C(=O)CN2CCC3(CC2)CCN(c2ccc(C(=C(CCCl)c5ccccc5)c5ccc(B(O)O)cc5)cc2)CC3)C4)C(=O)N1 (stereo not drawn) [E 198, (4-(4-chloro-1-(4-(9-(2-(6-(2,6-dioxopiperidin-3-yl)-5,7-dioxo-3,5,6,7-tetrahydropyrrolo[3,4-f]isoindol-2(1H)-yl)-2-oxoethyl)-3,9-diazaspiro[5.5]undecan-3-yl)phenyl)-2-phenylbut-1-en-1-yl)phenyl)boronic acid]"
6,> 100,"O=C1CCC(N2C(=O)c3cc4c(cc3C2=O)CN(CC(=O)N2CCC3(CC2)CCN(c2c(F)cc([C@@H]5c6ccc(O)cc6CC[C@@H]5c5ccccc5)cc2F)CC3)C4)C(=O)N1 (mixture of isomers) [E 175, Rac-6-(2-(9-(2,6-difluoro-4-((1R,2S)-6-hydroxy-2-phenyl-1,2,3,4-tetrahydronaphthalen-1-yl)phenyl)-3,9-diazaspiro[5.5]undecan-3-yl)-2-oxoethyl)-2-(2,6-dioxopiperidin-3-yl)-6,7-dihydropyrrolo[3,4-f]isoindole-1,3(2H,5H)-dione]"

# Second part, the compound before the results:
row,SMILES,DC50 [nM]
1,"C[C@@H]1Cc2c([nH]c3ccccc23)[C@@H](c2c(F)cc(N3CC(CC(=O)N4CC(N5Cc6cc7c(cc6C5)C(=O)N(C5CCC(=O)NC5=O)C7)C4)C3)cc2F)N1CC(F)F (stereo partly drawn) [E 134, 3-(6-(1-(2-(1-(4-((1R,3R)-2-(2,2-difluoroethyl)-3-methyl-2,3,4,9-tetrahydro-1H-pyrido[3,4-b]indol-1-yl)-3,5-difluorophenyl)azetidin-3-yl)acetyl)azetidin-3-yl)-1-oxo-3,5,6,7-tetrahydropyrrolo[3,4-f]isoindol-2(1H)-yl)piperidine-2,6-dione]",10 to 100
2,"O=C1CCC(N2C(=O)c3cc4c(cc3C2=O)CN(CC(=O)N2CC3(CCC(Oc5ccc([C@@H]6c7ccc(O)cc7CC[C@@H]6c6ccccc6)cc5)CC3)C2)C4)C(=O)N1 (stereo partly drawn) [E 223, 2-(2,6-dioxopiperidin-3-yl)-6-(2-(7-(4-((1R,2S)-6-hydroxy-2-phenyl-1,2,3,4-tetrahydronaphthalen-1-yl)phenoxy)-2-azaspiro[3.5]nonan-2-yl)-2-oxoethyl)-6,7-dihydropyrrolo[3,4-f]isoindole-1,3(2H,5H)-dione]",> 100
3,"O=C1CCC(N2C(=O)c3cc4c(cc3C2=O)CN(C2CN(C(=O)C3CCN(c5ccc([C@@H]6c7ccc(O)cc7CC[C@@H]6c6ccccc6)cc5)CC3)C2)C4)C(=O)N1 (mixture of isomers) [E 15, Rac-2-(2,6-dioxopiperidin-3-yl)-6-(1-(1-(4-((1R,2S)-6-hydroxy-2-phenyl-1,2,3,4-tetrahydronaphthalen-1-yl)phenyl)piperidine-4-carbonyl)azetidin-3-yl)-6,7-dihydropyrrolo[3,4-f]isoindole-1,3(2H,5H)-dione]",10 to 100
4,"O=C1CCC(N2C(=O)c3cc4c(cc3C2=O)CN(CC2(F)CCN(C(=O)C3CN(c5ccc([C@@H]6c7ccc(O)cc7CC[C@@H]6c6ccccc6)cc5)C3)CC2)C4)C(=O)N1 (stereo partly drawn) [E 199, 2-(2,6-dioxopiperidin-3-yl)-6-((4-fluoro-1-(1-(4-((1R,2S)-6-hydroxy-2-phenyl-1,2,3,4-tetrahydronaphthalen-1-yl)phenyl)azetidine-3-carbonyl)piperidin-4-yl)methyl)-6,7-dihydropyrrolo[3,4-f]isoindole-1,3(2H,5H)-dione]",> 100
5,"C[C@@H]1Cc2c([nH]c3ccccc23)[C@@H](c2c(F)cc(N3CCC(N4CCC(N5Cc6cc7c(cc6C5)C(=O)N(C5CCC(=O)NC5=O)C7=O)CC4)CC3)cc2F)N1CC(F)F (stereo partly drawn) [E 87, 6-(1′-(4-((1R,3R)-2-(2,2-difluoroethyl)-3-methyl-2,3,4,9-tetrahydro-1H-pyrido[3-4-b]indol-1-yl)-3,5-difluorophenyl)-[1,4′-bipiperidin]-4-yl)-2-(2,6-dioxopiperidin-3-yl)-6,7-dihydropyrrolo[3,4-f]isoindole-1,3(2H,5H)-dione]",> 100
6,O=C1CCC(N2Cc3cc4c(cc3C2=O)CN(C(=O)CN2CC3(C2)CN(c2ccc(C5=C(c6ccc(F)cc6)CCCc6cc(O)ccc65)cc2)C3)C4)C(=O)N1 (stereo not drawn) [E 48],10 to 100
7,"O=C1CCC(N2C(=O)c3cc4c(cc3C2=O)CN(CC(=O)N2CCC3(CC2)CCN(c2ccc([C@@H]5c6ccc(O)cc6CC[C@@H]5C5CCC(F)(F)CC5)cc2)CC3)C4)C(=O)N1 (mixture of isomers) [E 178, Rac-6-(2-(9-(4-((1R,2R)-2-(4,4-difluorocyclohexyl)-6-hydroxy-1,2,3,4-tetrahydronaphthalen-1-yl)phenyl)-3,9-diazaspiro[5.5]undecan-3-yl)-2-oxoethyl)-2-(2,6-dioxopiperidin-3-yl)-6,7-dihydropyrrolo[3,4-f]isoindole-1,3(2H,5H)-dione]",10 to 100
8,"O=C1CCC(N2Cc3cc4c(cc3C2=O)CN(C(=O)C2CCN(CC3CCN(c5ccc([C@@H]6c7ccc(O)cc7CC[C@@H]6c6ccccc6)cc5)CC3)CC2)C4)C(=O)N1 (stereo partly drawn) [E 284, 3-(6-(1-((1-(4-((1R,2S)-6-hydroxy-2-phenyl-1,2,3,4-tetrahydronaphthalen-1-yl)phenyl)piperidin-4-yl)methyl)piperidine-4-carbonyl)-1-oxo-3,5,6,7-tetrahydropyrrolo[3,4-f]isoindol-2(1H)-yl)piperidine-2,6-dione]",> 100
9,"C[C@@H]1Cc2c([nH]c3ccccc23)[C@H](c2c(F)cc(CN3CCC4(CCC(CN5Cc6cc7c(cc6C5)C(=O)N(C5CCC(=O)NC5=O)C7=O)CC4)CC3)cc2F)N1CC(F)F (stereo partly drawn) [E 381, 6-((3-(4-((1S,3R)-2-(2,2-difluoroethyl)-3-methyl-2,3,4,9-tetrahydro-1H-pyrido[3,4-b]indol-1-yl)-3,5-difluorobenzyl)-3-azaspiro[5.5]undecan-9-yl)methyl)-2-(2,6-dioxopiperidin-3-yl)-6,7-dihydropyrrolo[3,4-f]isoindole-1,3(2H,5H)-dione]",> 100
10,"O=C1CCC(N2C(=O)c3cc4c(cc3C2=O)CN(C(=O)[C@H]2CC[C@H](CN3CC(Oc5ccc([C@@H]6c7ccc(O)cc7CC[C@@H]6c6ccccc6)cc5)C3)CC2)C4)C(=O)N1 (stereo partly drawn) [E 310, 2-(2,6-dioxopiperidin-3-yl)-6-((1R,4r)-4-((3-(4-((1R,2S)-6-hydroxy-2-phenyl-1,2,3,4-tetrahydronaphthalen-1-yl)phenoxy)azetidin-1-yl)methyl)cyclohexane-1-carbonyl)-6,7-dihydropyrrolo[3,4-f]isoindole-1,3(2H,5H)-dione]",> 100
11,"O=C1CCC(N2C(=O)c3cc4c(cc3C2=O)CN(CC(=O)N2CC3(CCN(c5ccc([C@@H]6c7ccc(O)cc7CC[C@@H]6c6ccccc6)c(F)c5)CC3)C2)C4)C(=O)N1 (mixture of isomers) [E 174, Rac-2-(2,6-dioxopiperidin-3-yl)-6-(2-(7-(3-fluoro-4-((1S,2S)-6-hydroxy-2-phenyl-1,2,3,4-tetrahydronaphthalen-1-yl)phenyl)-2,7-diazaspiro[3.5]nonan-2-yl)-2-oxoethyl)-6,7-dihydropyrrolo[3,4-f]isoindole-1,3(2H,5H)-dione]",10 to 100

# Same assay, conditions: compounds 16 hours, Table A does not say whether T47D or MCF7, read-out: Potency (DC50)
row,DC50 [nM],SMILES
1,> 100,"O=C1CCC(N2Cc3cc4c(cc3C2=O)CN(C2CCN(CC3CCN(c5ccc([C@@H]6c7ccc(O)cc7CC[C@@H]6c6ccccc6)cc5)CC3)CC2)C4=O)C(=O)N1 (stereo partly drawn) [E 506, 2-(2,6-dioxopiperidin-3-yl)-6-(1-((1-(4-((1R,2S)-6-hydroxy-2-phenyl-1,2,3,4-tetrahydronaphthalen-1-yl)phenyl)piperidin-4-yl)methyl)piperidin-4-yl)-2,3,6,7-tetrahydropyrrolo[3,4-f]isoindole-1,5-dione]"
